Results on 1 compound are retold here after patent US20060035209A1, “Screening method” (priority 2002, published 2006).

What all share (format): in vivo, rat
The test system of one assay is TSC-22 mRNA. Put plainly: TSC-22 mRNA expression level in kidneys of Zucker fatty rats (real-time quantitative RT-PCR). The source says:
(§1) Male Zucker fatty rats (ZF rats, 18 weeks of age, Charles River Japan Inc.), which have hyperinsulinemia and spontaneously develop renal disease, were given oral administration of candesartan cilexetil (angiotensin II type 1 receptor antagonist) in suspension in 0.5% methylcellulose 100 cP once daily for 9 consecutive weeks. For a control group and a normal control group, male Zucker lean rats at the same weeks of age (ZL rats, Charles River Japan Inc.) were given oral administration of 0.5% methylcellulose 100 cP (vehicle) once daily for consecutive days. At 8 weeks of administration, 24-hour urine pooling was conducted, and urinary albumin excretion was measured using the A/G B Test Wako (Wako Pure Chemical Industries, Ltd.). At 9 weeks of administration, kidneys were collected and stored at −80° C. After the sample was disrupted, total RNA was extracted. A primer and a fluorescent probe were prepared on the basis of reported (ibidem) mRNA sequences, and various mRNA expression levels were measured by the real-time quantitative RT-PCR method using ABI PRISM7700 (Applied Biosystems).

The subject of another assay is TGF-β1 mRNA. As to the kind of experiment: TGF-β1 mRNA expression level in kidneys of Zucker fatty rats (real-time quantitative RT-PCR).
Excerpt: as §1

In the next assay the test system is Zucker fatty rats. As to the kind of experiment: Urinary albumin excretion in Zucker fatty rats (24-hour urine pooling, A/G B Test Wako).
Excerpt: as §1

[1] abbreviates: Zucker fatty rats, administration of the drug.

For the compound `CCOc1nc2cccc(C(=O)OC(C)OC(=O)OC3CCCCC3)c2n1Cc1ccc(-c2ccccc2-c2nnn[nH]2)cc1` (stereo not drawn) [Candesartan cilexetil, candesartan cilexetil], the “increase in TSC-22 mRNA expression level in the kidneys (in words)” value with TSC-22 mRNA (setting [1]) is reported as “suppressed”. The “mRNA expression level of TSC-22 in the kidneys (relative value with the expression level in the kidneys of Zucker lean rats as 1)” value in the assay with TSC-22 mRNA (male ZF rats, oral once daily, kidneys collected at 9 weeks of administration, n = 8-9, Mean (ZF vehicle 2.4)) amounted to 1.6. The “increase in TGF-β1 mRNA expression level in the kidneys (in words)” value with TGF-β1 mRNA (setting [1]) is recorded as “suppressed”. Also, the “mRNA expression level of TGF-β1 in the kidneys (relative value with the expression level in the kidneys of Zucker lean rats as 1)” value in the assay on TGF-β1 mRNA (male ZF rats, oral once daily, kidneys collected at 9 weeks of administration, n = 8-9, Mean (ZF vehicle 2.1)) was found to be 1.2. For the same compound, the “increase in urinary albumin excretion (in words)” value in the assay with Zucker fatty rats (setting [1]) is “suppressed”. In the assay on Zucker fatty rats (male ZF rats, oral once daily, at 8 weeks of administration, n = 8-9, Mean (ZF vehicle 401.5, ZL vehicle 48.5)), this compound returned a Urinary albumin excretion of 61.7 mg/day.
